US20040138212A1, “Disubstituted 1,7-guanines” (priority 2001, published 2004)

Molecular target: telomerase enzyme (Homo sapiens, UniProt O14746)
Assay: Flash Plate-based telomerase assay
Type: biochemical
Conditions: telomerase inhibition, two hours of incubation
Description: The telomerase activity of the compounds of the invention has been evaluated using a Flash Plate-based assay. […] Other methods for determining the inhibitory concentration of a compound of the invention against telomerase can be employed as will be apparent to a person skilled in the art based on the disclosure herein.
Briefly, the assay mixture is costituted by:
telomerase enzyme diluted in a buffer, the composition of which has been selected to maintain the enzyme activity stable along the duration of the assay.
dNTPs, deoxynucleotides 5′-triphosphate.
biotynilated oligo as primer.
increasing concentrations of test compounds/positive control.
After two hours of incubation at […] the telomeric repeats added are evaluated by hybridization in solution with a 3′-labeled short oligonucleotide probe.
The extent of hybridization is then quantitated by transferring the reaction mixture in a streptavidin-coated flash plate, where the binding between biotin and streptavidin occurs.
The telomerase activity is proportional to the radioactivity measured and the inhibitory activity of the compounds is evaluated as IC50 using the Sigma Plot fit program.
With the above-described method, IC50 values of the compounds of the present invention were determined.

telomerase enzyme, sequence (O14746 whole entry): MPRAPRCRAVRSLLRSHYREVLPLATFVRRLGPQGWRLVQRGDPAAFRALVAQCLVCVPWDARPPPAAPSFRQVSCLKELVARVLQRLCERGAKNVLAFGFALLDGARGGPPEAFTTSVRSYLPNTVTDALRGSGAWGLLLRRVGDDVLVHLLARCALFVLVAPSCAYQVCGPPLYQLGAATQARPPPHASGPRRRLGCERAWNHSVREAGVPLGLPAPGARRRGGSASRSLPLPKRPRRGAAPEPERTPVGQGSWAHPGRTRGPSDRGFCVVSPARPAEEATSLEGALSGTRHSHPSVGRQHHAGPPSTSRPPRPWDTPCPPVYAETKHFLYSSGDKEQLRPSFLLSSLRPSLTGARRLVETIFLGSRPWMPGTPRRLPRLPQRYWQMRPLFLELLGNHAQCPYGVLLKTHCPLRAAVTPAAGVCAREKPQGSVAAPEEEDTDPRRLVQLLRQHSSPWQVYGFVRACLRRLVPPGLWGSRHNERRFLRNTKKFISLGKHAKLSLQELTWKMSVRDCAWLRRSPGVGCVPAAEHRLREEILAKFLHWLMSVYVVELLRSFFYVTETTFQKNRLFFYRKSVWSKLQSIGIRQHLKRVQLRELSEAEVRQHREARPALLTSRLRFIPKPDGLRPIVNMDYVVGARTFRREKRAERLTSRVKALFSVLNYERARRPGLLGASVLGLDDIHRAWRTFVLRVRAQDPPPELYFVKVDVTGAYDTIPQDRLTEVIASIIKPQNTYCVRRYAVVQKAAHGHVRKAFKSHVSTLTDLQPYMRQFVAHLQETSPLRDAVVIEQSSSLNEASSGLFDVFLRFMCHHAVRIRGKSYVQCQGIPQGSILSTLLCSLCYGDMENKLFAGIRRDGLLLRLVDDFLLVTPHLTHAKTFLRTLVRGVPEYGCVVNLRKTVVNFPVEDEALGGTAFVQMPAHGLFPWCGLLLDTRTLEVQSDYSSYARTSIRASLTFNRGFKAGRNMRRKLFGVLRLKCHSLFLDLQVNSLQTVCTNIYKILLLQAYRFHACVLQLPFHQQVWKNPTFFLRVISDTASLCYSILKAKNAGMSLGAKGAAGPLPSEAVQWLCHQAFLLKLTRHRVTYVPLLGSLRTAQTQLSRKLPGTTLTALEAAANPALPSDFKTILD

COC(=O)c1ccc(Cn2c(N)nc3ncn(Cc4ccc(C(=O)OC)cc4)c3c2=O)cc1 [compound 13, methyl 4-({2-amino-7-[4-(methoxycarbonyl)benzyl]-6-oxo-6,7-dihydro-1H-purin-1-yl}methyl) benzoate]
IC50: 12.3 µM
